Data from patent US4163844A, “Nitrogen-containing heterocyclic compounds” (Yamanouchi Pharmaceutical Co., Ltd., priority 1976, dated 1979).

What was measured:
[1] = tested on: Carrageenin-induced edema; experiment: Carrageenin-induced edema (Winter's method); format: in vivo, Male Wister rats; conditions: oral, one hour before carrageenin, edema 3 hours after injection
Method: Male Wister rats (weighting 130-170 g.), one group being 6 rats, fasted overnight were used. According to Winter's method [Proc. Soc. […] After 3 hours, each rat was sacrificed by chloroform and the hind paw was cut and weighed immediately. By using the value obtained by subtracting the weight of the untreated hind paw from the weight of the hind paw having injected thereto the carrageenin as the weight of edema, the inhibitory ratio of the sample administered rat groups to control groups was calculated. The sample was orally administered before one hour of the injection of carrageenin.
(§1) In addition, the test samples used in the aforesaid tests (a), (b), (c) and (d) were prepared by suspending the test compounds, in the cases of using the compounds of Test Nos. 1-12 and phenylbutazone, in an aqueous 0.5% methyl cellulose solution, dissolving the test compounds, in the cases of using aminopyrine, in distilled water.

[2] = tested on: acetic acid-induced writhings; experiment: Whittle's method: acetic acid-induced writhings; format: in vivo, Male ICR-Mice
Method: (§2) Male ICR-Mice (weighting 25-35 g.), one group being 12 mice, fasted overnight were used in this test. The sample was orally administered, and 20 minutes after, 5 ml./Kg. of 0.4% Evance blue was injected intravenously and further 10 minutes after, 10 ml./Kg. of 0.6% acetic acid was injected intraperitoneally. The number of writhings after 20 minutes since the administration of acetic acid was recorded and further 10 minutes after since then, the mice were killed by dislocation of the neck, the dye leaked in the abdominal cavity was washed out with 5 ml. of 0.9% saline to make the total amount 10 ml., and thereafter furs, blood corpuscles, etc., intermingled were removed by centrifugal separation at 3,000 r.p.m. for 5 minutes. Furthermore, for preventing turbidity caused by protein, 0.1 ml. of an aqueous 0.1 normal sodium hydroxide was added and then the absorbance at 590 nm was measured. The inhibition ratio of the sample administered rat groups to control groups was calculated.
as §1

[3] = tested on: Permeability (dye leakage into abdominal cavity); experiment: Whittle's method: permeability (dye leaked in the abdominal cavity); format: in vivo, Male ICR-Mice
Method: as §2, §1

[4] = tested on: Hyperthermia caused by Brewer's yeast; experiment: Antipyretic effect (Brewer's yeast hyperthermia); format: in vivo, Male Wister rats; set-up: key: rectal body temperature in °C; conditions: in °C (unit assumed)
Method: Male Wister rats (weighting 130-150 g.), one group being 5 rats, were used. Hyperthermia was caused by subcutaneous injection of 2 ml./rat of 20% Brewer's yeast suspension. 18 hours later, the rats showing a rise in temperature exceeding 1° C. were selected and allocated into groups each consisting of 5 rats. The sample was orally administered and then the body temperature was measured with the passage of time for 6 hours since then. In addition, the body temperature was measured by measuring the temperature in the rectum by means of a thermister thermometer.
as §1

Acute toxicity = format: in vivo, Male Wister rats; conditions: 500 mg/kg oral, observed 7 days; deaths/animals
Method: Male Wister rats (weighting 130-170 g.), one group being 5 rats, fasted overnight were used in this test.
as §1

[5] = 1 hour, 50mg/kg P.O., * significantly different from before administration (P<0.05)
[6] = 2 hours, 50mg/kg P.O., * significantly different from before administration (P<0.05)
[7] = 4 hours, 50mg/kg P.O., * significantly different from before administration (P<0.05)
[8] = 6 hours, 50mg/kg P.O., * significantly different from before administration (P<0.05)
[9] = before administration, group dosed 50mg/kg P.O.

| Compound | Inhibition (carrageenin-induced edema) ([1]; 25 mg/kg) [%] | Inhibition, Writhings ([2]; 50mg/kg P.O.) [%] | Inhibition, Permeability ([3]; 50mg/kg P.O.) [%] | Inhibition (carrageenin-induced edema) ([1]; 50 mg/kg) [%] | other results |
| --- | --- | --- | --- | --- | --- |
| 2-acetoxy-5-oxo-2,3-dihydro-5H-thiazolo[3,2-b]isoquinoline [Example 9] | 53.4 | 82.9 |  |  |  |
| 3-methyl-5-oxo-2,3-dihydro-5H-thiazolo[3,2-b]isoquinoline [Example 1] |  | 57.8 | 21.3 |  | Inhibition, Permeability ([3]; 25mg/kg P.O.): 26.2%; Inhibition, Writhings ([2]; 25mg/kg P.O.): 24.8% |
| 5-oxo-2,3-dihydro-5H-thiazolo[3,2-b]isoquinoline-1,1-dioxide [Example 8] | 57.5 |  | 23.5 |  |  |
| 5-oxo-5H-thiazolo[3,2-b]isoquinoline [Example 10] | 58.0 | 91.6 | 32.4 |  |  |
| 5-oxo-5H-thiazolo[3,2-b]isoquinoline-1,1-dioxide [Example 5] | 55.3 |  | 36.0 | 67.2 | Inhibition, Permeability ([3]; 25mg/kg P.O.): 22.6% |
| 6-oxo-2,3-dihydro-2H,6H-1,3-oxazino[3,2-b]isoquinoline [Example 2] | 41.7 | 14.4 | 20.1 | 71.2 | Inhibition, Permeability ([3]; 25mg/kg P.O.): 4.7%; Inhibition, Writhings ([2]; 25mg/kg P.O.): 22.6% |
| 6-oxo-3,4-dihydro-2H,6H-1,3-thiazino[3,2-b]isoquinoline [Example 3] | 47.0 | 67.5 | 37.0 | 74.0 |  |
| 6-oxo-3,4-dihydro-2H,6H-1,3-thiazino[3,2-b]isoquinoline-1,1-dioxide [Example 7] | 57.0 | 69.5 | 38.6 |  |  |
| 6-oxo-3,4-dihydro-2H,6H-1,3-thiazino[3,2-b]isoquinoline-1-oxide [Example 6] | 57.1 | 28.8 | 37.1 |  |  |
| Cc1c(N(C)C)c(=O)n(-c2ccccc2)n1C [Aminopyrine, reference compound] |  | 58.1 | 41.7 |  | Rectal temperature (mean±SE) [4, 5]: 37.92±0.09; Rectal temperature (mean±SE) [4, 6]: 37.49±0.10; Rectal temperature (mean±SE) [4, 7]: 37.39±0.07; Rectal temperature (mean±SE) [4, 8]: 37.76±0.19; Rectal temperature (mean±SE) [4, 9]: 39.24±0.14; Inhibition, Permeability ([3]; 25mg/kg P.O.): 28.5%; Inhibition, Writhings ([2]; 25mg/kg P.O.): 29.6% |
| O=c1c2ccccc2cc2n1CC[S+]2[O-] (stereo not drawn) [Example 4, 5-oxo-2,3-dihydro-5H-thiazolo[3,2-b]isoquinoline-1-oxide] | 41.2 | 39.7 | 41.1 | 65.1 | Inhibition, Permeability ([3]; 25mg/kg P.O.): 22.1%; Inhibition, Writhings ([2]; 25mg/kg P.O.): 29.1% |
| CCCCC1C(=O)N(c2ccccc2)N(c2ccccc2)C1=O [Phenylbutazone, reference compound] | 29.4 |  |  | 44.5 |  |
| O=c1c2ccccc2cc2n1CCCS2 [Test No. 1] | 54.8 |  |  | 69.8 | Rectal temperature (mean±SE) [4, 5]: 38.72±0.13; Rectal temperature (mean±SE) [4, 6]: 38.20±0.15; Rectal temperature (mean±SE) [4, 7]: 37.39±0.23; Rectal temperature (mean±SE) [4, 8]: 37.44±0.32; Rectal temperature (mean±SE) [4, 9]: 39.26±0.19 |
| O=c1c2ccccc2cc2n1CCCS2(=O)=O [Test No. 2] |  |  |  |  | Rectal temperature (mean±SE) [4, 5]: 39.04±0.23; Rectal temperature (mean±SE) [4, 6]: 38.41±0.21; Rectal temperature (mean±SE) [4, 7]: 37.32±0.31; Rectal temperature (mean±SE) [4, 8]: 37.55±0.33; Rectal temperature (mean±SE) [4, 9]: 38.94±0.14 |
| CC1CSc2cc3ccccc3c(=O)n21 (stereo not drawn) [Test No. 3] |  |  |  |  | Number of death (Acute toxicity): 3/5 |
| O=c1c2ccccc2cc2n1CCC[S+]2[O-] (stereo not drawn) [Test No. 5] |  |  |  |  | Number of death (Acute toxicity): 3/5 |
| O=Cc1c2n(c(=O)c3ccccc13)CCCS2 [Test No. 11] | 45.9 |  |  |  |  |
